Test results as given in patent US20140205631A1, “Stimulation of vaccination by angiotensin peptides” (University of Southern California, priority 2013, published 2014).

Experiments:
HIV-gp120 antigen [1] = assay: Vaginal secretion IgG antibody titers (ELISA) after vaccination of cats; assay type: in vivo, human immunodeficiency virus (HIV); conditions: for IgG Anti-HIV gp120: vaginal, Week 8, lowest dilution 1:4, elution factor 300-fold
Protocol: (§1) Animals: Eleven (11) female outbred cats>24 weeks old that were free of FIV, feline leukemia virus (FeLV) and feline infectious peritonitis virus were employed. The animals were restrained for the application of test articles to mucous membranes and collection of blood and mucosal secretions. Sedation, if necessary, was induced by subcutaneous administration of ketamine hydrochloride (22 mg/kg) and acepromazine maleate (0.1 mg/kg). Euthanasia was accomplished with a lethal overdose of barbiturates. All activities were approved by the Institutional Animal Care and Use Committee and supervised by veterinary staff.
(§2) Vaccine Preparation: Fel-O-Vax FIV (Fort Dodge Animal Health, Fort Dodge, Iowa) and A(1-7) was combined in a constant volume of 2% hydroxyethyl cellulose (2% HEC). The range of concentrations of A(1-7) ranged from 0 to 10 mg/mL with a constant 0.33 mL of Fel-O-Vax FIV suspended in each mL of the gel applied for vaccination purposes. Two control animals received intramuscular Fel-O-Vax FIV at baseline, week 3 and week 5. One control animal had mucosal vaccination with Fel-O-Vax alone suspended in the 2% HEC without A(1-7) and one control animal received intramuscular Fel-O-Vax FIV with 0.3 mg/kg of A(1-7) at baseline, week 3 and week 5.
(§3) Delivery of angiotensin(1-7) and FIV vaccine to mucosal surfaces: 2% HEC, a viscous gel, was used as the vehicle for the topical delivery of angiotensin(1-7) and FIV vaccine. The topical vaccine was applied to the mucosal surface weekly for 6 consecutive weeks. 1.0 mL was applied to the muzzle for oral mucosal vaccination and 1.0 mL and 0.2 mL was instilled in the rectal and vaginal vaults, respectively for mucosal vaccination at these sites.
(§4) Measurement of Local Immune Response: The Weck-Cel Surgical Spear (Windsor Biomedical, Newton, N.H.) was used to obtain secretions. Once inserted, the sponge is allowed to remain in place for 5 minutes. The secretions were extracted by centrifugation with 300 μL of a buffer solution. The buffer solution is prepared by mixing 50 μL of 100× protease inhibitor cocktail and 250 μL of 10% Igepal (Sigma, St Louis, Mo., U.S.A.) with 4.7 ml of phosphate-buffered saline (PBS) containing 0.25% bovine serum albumin (BSA, Fraction V; Sigma). The 100× protease inhibitor cocktail contains 100 μg/mL aprotinin, 500 μg/mL leupeptin, 100 μg/mL bestatin (all Sigma), and 50 μg/mL 4-(2-Aminoethyl)-benzenesulfonyl fluoride hydrochloride (Roche Applied Sciences, U.S.A.) in phosphate buffered saline.
(§5) The local immune response in mucosal secretions was evaluated against the homologous FIV-p24 antigen (Cell Biolabs, Inc, San Diego, Calif.) or the heterologous HIV-gp120 antigen (ImmunoDiagnostics, Inc, Woburn, Mass.). Plates were prepared with 50 ng/mL FIV-p24 antigen or with 500 ng/mL HIV-gp120 antigen (Bachem Americans, Inc, Torrance, Calif.) incubated over night at 4° C., washed and the target sample added and incubated overnight again at 4° C. The plates were washed and the indicator goat anti-feline IgG (Accurate Chemical & Scientific Corp., Westbury, N.Y., working titer 1:10,000) or goat anti-feline IgA (Accurate Chemical & Scientific Corp., Westbury, N.Y., working titer 1:1,000) added and incubated for 24 hours at 4° C. Following a final wash, substrate solution was added. The stop solution was added after 15 minutes for the IgG reaction and after 30 minutes for the IgA reaction. Plates were read at 450 nm.

HIV-gp120 antigen [2] = assay: Rectal secretion SIgA antibody titers (ELISA) after vaccination of cats; assay type: in vivo, human immunodeficiency virus (HIV); conditions: parenteral vaccination or topical application of Fel-O-Vax FIV with A(1-7)
Protocol: as §1
as §2, with “One control animal had mucosal vaccination with Fel-O-Vax alone suspended in the 2% HEC without A(1-7) and one control animal received intramuscular Fel-O-Vax FIV with 0.3 mg/kg of A(1-7) at baseline, week 3 and week 5.” left out
(§6) The local immune response in mucosal secretions was evaluated against the homologous FIV-p24 antigen (Cell Biolabs, Inc, San Diego, Calif.) or the heterologous HIV-gp120 antigen (ImmunoDiagnostics, Inc, Woburn, Mass.). […] Plates were read at 450 nm.

FIV-p24 = assay: Oral secretion IgG antibody titers (ELISA) after vaccination of cats; assay type: in vivo, feline immunodeficiency virus (FIV); conditions: Week 8, lowest dilution 1:4, elution factor 4-fold
Protocol: as §1, §2, §3, §4, §6

FIV-p24 antigen = assay: Rectal secretion SIgA antibody titers (ELISA) after vaccination of cats; assay type: in vivo, feline immunodeficiency virus (FIV); conditions: for SIgA Anti-FIV-p24: rectal, lowest dilution Undilute
Protocol: as §1, §2, §3, §4, §5

[3] = topical Fel-O-Vax FIV + 0.1 A(1-7) in 2% HEC
[4] = topical Fel-O-Vax FIV + 10.0 A(1-7) in 2% HEC

Asp-Arg-Val-Tyr-Ile-His-Pro (DRVYIHP) [A(1-7)]
High levels: SIgA anti-HIV-gp120 (rectal, Table 4) (HIV-gp120 antigen [2])
also elicited: IgG anti-HIV-gp120 antibodies in vaginal secretions (HIV-gp120 antigen [1]; topical, lower dose levels of A(1-7))
Undilute: SIgA Anti-FIV-p24 (FIV-p24 antigen; IM Fel-O-Vax FIV + 0.3 mg/kg A(1-7), Week 4) | SIgA Anti-FIV-p24 (FIV-p24 antigen; IM Fel-O-Vax FIV + 0.3 mg/kg A(1-7), Week 8) | SIgA Anti-FIV-p24 (FIV-p24 antigen; topical Fel-O-Vax FIV + 0.1 A(1-7) in 2% HEC, Week 2) | SIgA Anti-FIV-p24 (FIV-p24 antigen; topical Fel-O-Vax FIV + 0.1 A(1-7) in 2% HEC, Week 6) | SIgA Anti-FIV-p24 (FIV-p24 antigen; topical Fel-O-Vax FIV + 0.1 A(1-7) in 2% HEC, Week 8) | SIgA Anti-FIV-p24 (FIV-p24 antigen; topical Fel-O-Vax FIV + 0.2 A(1-7) in 2% HEC, Week 2) | SIgA Anti-FIV-p24 (FIV-p24 antigen; topical Fel-O-Vax FIV + 0.3 A(1-7) in 2% HEC, Week 2) | SIgA Anti-FIV-p24 (FIV-p24 antigen; topical Fel-O-Vax FIV + 0.3 A(1-7) in 2% HEC, Week 4) | SIgA Anti-FIV-p24 (FIV-p24 antigen; topical Fel-O-Vax FIV + 0.4 A(1-7) in 2% HEC, Week 4) | SIgA Anti-FIV-p24 (FIV-p24 antigen; topical Fel-O-Vax FIV + 0.4 A(1-7) in 2% HEC, Week 6)
declined: IgG antibody induction in vaginal secretions (HIV-gp120 antigen [1]; topical, higher dose levels of A(1-7))
Low levels: SIgA-anti-FIV-p24 (rectal, Table 4) (FIV-p24 antigen; both methods of vaccination (parenteral or topical Fel-O-Vax FIV with A(1-7)))
increased: mucosal anti-FIV antibodies in the rectum (FIV-p24 antigen; injection of A(1-7) with FIV antigens)
Negative: IgG Anti-HIV gp120 (HIV-gp120 antigen [1]; [3]) | IgG Anti-HIV gp120 (HIV-gp120 antigen [1]; topical Fel-O-Vax FIV + 5.0 A(1-7) in 2% HEC) | IgG Anti-HIV gp120 (HIV-gp120 antigen [1]; topical Fel-O-Vax FIV + 7.5 A(1-7) in 2% HEC) | IgG Anti-HIV gp120 (HIV-gp120 antigen [1]; [4]) | IgG anti-FIV-p24 (FIV-p24; [3]) | IgG anti-FIV-p24 (FIV-p24; topical Fel-O-Vax FIV + 0.2 A(1-7) in 2% HEC) | IgG anti-FIV-p24 (FIV-p24; topical Fel-O-Vax FIV + 0.3 A(1-7) in 2% HEC) | IgG anti-FIV-p24 (FIV-p24; [4]) | SIgA Anti-FIV-p24 (FIV-p24 antigen; IM Fel-O-Vax FIV + 0.3 mg/kg A(1-7), Week 6) | SIgA Anti-FIV-p24 (FIV-p24 antigen; topical Fel-O-Vax FIV + 0.2 A(1-7) in 2% HEC, Week 6) | SIgA Anti-FIV-p24 (FIV-p24 antigen; topical Fel-O-Vax FIV + 0.2 A(1-7) in 2% HEC, Week 8) | SIgA Anti-FIV-p24 (FIV-p24 antigen; topical Fel-O-Vax FIV + 0.3 A(1-7) in 2% HEC, Week 6) | SIgA Anti-FIV-p24 (FIV-p24 antigen; topical Fel-O-Vax FIV + 0.3 A(1-7) in 2% HEC, Week 8) | SIgA Anti-FIV-p24 (FIV-p24 antigen; topical Fel-O-Vax FIV + 5.0 A(1-7) in 2% HEC, Week 4) | SIgA Anti-FIV-p24 (FIV-p24 antigen; topical Fel-O-Vax FIV + 5.0 A(1-7) in 2% HEC, Week 6) | SIgA Anti-FIV-p24 (FIV-p24 antigen; topical Fel-O-Vax FIV + 5.0 A(1-7) in 2% HEC, Week 8) | SIgA Anti-FIV-p24 (FIV-p24 antigen; topical Fel-O-Vax FIV + 7.5 A(1-7) in 2% HEC, Week 2) | SIgA Anti-FIV-p24 (FIV-p24 antigen; topical Fel-O-Vax FIV + 7.5 A(1-7) in 2% HEC, Week 4) | SIgA Anti-FIV-p24 (FIV-p24 antigen; topical Fel-O-Vax FIV + 7.5 A(1-7) in 2% HEC, Week 8) | SIgA Anti-FIV-p24 (FIV-p24 antigen; topical Fel-O-Vax FIV + 10.0 A(1-7) in 2% HEC, Week 2) | SIgA Anti-FIV-p24 (FIV-p24 antigen; topical Fel-O-Vax FIV + 10.0 A(1-7) in 2% HEC, Week 4) | SIgA Anti-FIV-p24 (FIV-p24 antigen; topical Fel-O-Vax FIV + 10.0 A(1-7) in 2% HEC, Week 6) | SIgA Anti-FIV-p24 (FIV-p24 antigen; topical Fel-O-Vax FIV + 10.0 A(1-7) in 2% HEC, Week 8)
